Laboratory results reported in patent publication US9630931B2, “Pharmaceutically active pyrazine derivatives” (Sentinel Oncology Limited, priority 2011, dated 2017).
Where a name gives a salt, the structure may show the parent alone.

What was measured:
MV4-11 cells = assay: Inhibition of cell growth in MV4-11 cells (Alamar blue, 72 h); assay type: cell-based; details: Homo sapiens, 72 h incubation
Method: (§1) Studies were carried out to test the effect of compounds on the inhibition of cell growth in MOLM-13 and MV4-11 cells.
(§2) The following protocol was used:
(§3) (a) Cells were seeded in 96-well plates at cell densities of 2500/well (MOLM-13) and 10,000/well (MV4-11). Cells were then incubated overnight prior to addition of compound or vehicle control.
(§4) (b) Test compounds were prepared from 10 mM DMSO stocks to give a final concentration range of 10 μM, 3 μM, 1 μM, 0.3 μM, […], 0.03 μM, 0.01 μM, […] vehicle control. The DMSO content was constant at 0.1%.
(§5) (c) Test compounds were incubated with the cells for 72 h at 37° C. 5% CO2 in a humidified atmosphere.
(§6) (d) Alamar blue 10% (v/v) was then added and incubated for a further 4 h, and fluorescent product detected using the BMG FLUOstar plate reader.
(§7) (e) Media only background values were subtracted and the data analysed using a 4-parameter logistic equation in GraphPad Prism.

Chk-1 kinase = Chk-1 kinase (Homo sapiens (Human), UniProt O14757); assay: Chk-1 kinase inhibiting activity (33P-ATP radiometric filter assay, CHKtide substrate); assay type: biochemical; details: recombinant full length GST-tagged CHK-1 0.5 nM, CHKtide 20 μM, 120 minutes at room temperature; read-out: IC50 against Chk-1 kinase
Method: The compounds of the invention were tested for activity against Chk-1 kinase using the materials and protocols set out below.
Base Reaction buffer: 20 mM Hepes (pH 7.5), 10 mM MgCl2, 1 mM EGTA, 0.02% Brij35, 0.02 mg/ml BSA, 0.1 mM Na3VO4, 2 mM DTT, 1% DMSO
Required cofactors are added individually to each kinase reaction
(i) Prepare indicated substrate in freshly prepared Base Reaction Buffer
(ii) Deliver any required cofactors to the substrate solution above
(iii) Deliver indicated kinase into the substrate solution and gently mix
(iv) Deliver compounds in DMSO into the kinase reaction mixture
(v) Deliver ^33P-ATP (specific activity 0.01 μCi/μl final) into the reaction mixture to initiate the reaction.
(vi) Incubate kinase reaction for 120 minutes at room temperature
(vii) Reactions are spotted onto P81 ion exchange paper (Whatman #3698-915)
(viii) Wash filters extensively in 0.1% phosphoric acid.
(ix) Dry filters and measure counts in scintillation counter
Recombinant full length construct, N-terminal GST tagged, purified from insect cells.
No special measures were taken to activate this kinase.
Final concentration in assay=0.5 nM
Peptide sequence: [[…]]
Final concentration in assay=20 μM
No additional cofactors are added to the reaction mixture
From the results obtained by following the above protocol, the IC50 values against Chk-1 kinase of a number of the compounds of the Examples were determined and these are shown in Table 3.

MOLM-13 cells = assay: Inhibition of cell growth in MOLM-13 cells (Alamar blue, 72 h); assay type: cell-based; details: Homo sapiens, 72 h incubation
Method: as §1, §2, §3, §4, §5, §6, §7

[1] = tested on: MYC oncogene driven murine spontaneous cancer model; details: cited from earlier work
[2] = tested on: triple negative negative breast cancer cells; details: cited from earlier work
[3] = tested on: thirty ovarian cancer cell lines; details: cited from earlier work

Sequence of Chk-1 kinase (O14757 whole entry): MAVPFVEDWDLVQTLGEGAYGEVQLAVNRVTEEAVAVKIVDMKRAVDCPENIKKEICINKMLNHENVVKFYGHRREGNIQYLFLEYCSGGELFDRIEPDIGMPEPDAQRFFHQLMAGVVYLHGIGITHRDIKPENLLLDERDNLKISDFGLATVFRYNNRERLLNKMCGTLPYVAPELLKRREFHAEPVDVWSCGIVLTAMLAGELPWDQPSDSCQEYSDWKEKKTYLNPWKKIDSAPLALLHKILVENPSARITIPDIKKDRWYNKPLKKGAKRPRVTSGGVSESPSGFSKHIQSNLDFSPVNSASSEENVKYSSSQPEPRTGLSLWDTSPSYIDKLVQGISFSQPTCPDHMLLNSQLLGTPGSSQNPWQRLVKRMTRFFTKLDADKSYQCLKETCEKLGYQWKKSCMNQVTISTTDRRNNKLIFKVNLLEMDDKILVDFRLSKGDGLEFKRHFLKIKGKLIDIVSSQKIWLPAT

COc1cc(CCN[C@@H](C)C2CCN(C(=O)C3CC3)CC2)c(Cl)cc1NC(=O)Nc1cnc(C#N)cn1 [Example 10, 1-(5-Chloro-4-{2-[(S)-1-(1-cyclopropane-carbonyl-piperidin-4-yl)-ethylamino]-ethyl}-2-methoxy-phenyl)-3-(5-cyano-pyrazin-2-yl)-urea hydrochloride]
IC50 (MV4-11 cells): 80 nM
IC50 (Chk-1 kinase): 0.65 nM
IC50 (MOLM-13 cells): 35 nM

COc1cc(CCN[C@@H](C)C2CCN(S(C)(=O)=O)CC2)c(Cl)cc1NC(=O)Nc1cnc(C#N)cn1 [Example 11, 1-(5-Chloro-4-{2-[(S)-1-(1-methanesulfonyl-piperidin-4-yl)-ethylamino]-ethyl}-2-methoxy-phenyl)-3-(5-cyano-pyrazin-2-yl)-urea hydrochloride]
IC50 (MV4-11 cells): 231 nM
IC50 (Chk-1 kinase): 0.28 nM
IC50 (MOLM-13 cells): 59 nM

N#Cc1cnc(NC(=O)Nc2ccc(CCNCC3CCCCC3)c(Cl)c2)cn1 [Example 12, 1-{3-Chloro-4-[2-(cyclo-hexylmethyl-amino)-ethyl]-phenyl}-3-(5-cyano-pyrazin-2-yl)-urea hydrochloride]
IC50 (MV4-11 cells): 740 nM
IC50 (Chk-1 kinase): 30 nM
IC50 (MOLM-13 cells): 1600 nM

Cn1cc(-c2[nH]c3cc(NC(=O)[C@H](N)C4CCCCC4)cc4c3c2C=NNC4=O)cn1 [PF-00477736]
single agent activity in MYC oncogene driven murine spontaneous cancer model [1]: selective single agent activity
growth of triple negative breast cancer cells [2]: inhibits the growth
growth of ovarian cancer cell lines [3]: inhibits the growth
